For this assay, the target named is T1, PI3Kγ (recombinant p101/p110γ protein) (Homo sapiens, UniProt P48736).
T1 construct: HA; made in house; host or cells: Spodoptera frugiperda (Sf9) cells, baculovirus co-infection
Kind of assay: PI3Kγ In Vitro Kinase Assay. The class given is biochemical. To be noted: purified recombinant p101/p110γ with G protein β1/γ2 subunits; 20 μM ATP, [γ-32P-ATP]; 25 μM PIP2 lipid micelles; 20 minutes at room temperature. In a few lines:
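Baculovirus/Sf9-expressed p101/p110γ (~2.7 nM) with Gβ1/γ2 (~57.7 nM) in HEPES/NaCl/EGTA/DTT buffer; 20 μM ATP plus [γ-32P]ATP, micelles of 25 μM PIP2, 300 μM PE, 10 mM MgCl2. Reactions ran 20 minutes at room temperature; radiolabelled PIP3 captured on glass-fibre filters and counted for IC50.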

Where a name gives a salt, the structure may show the parent alone.

By IC50 is commonly meant the concentration that inhibits the measured activity by half.

T1 sequence (P48736 whole entry, species assumed): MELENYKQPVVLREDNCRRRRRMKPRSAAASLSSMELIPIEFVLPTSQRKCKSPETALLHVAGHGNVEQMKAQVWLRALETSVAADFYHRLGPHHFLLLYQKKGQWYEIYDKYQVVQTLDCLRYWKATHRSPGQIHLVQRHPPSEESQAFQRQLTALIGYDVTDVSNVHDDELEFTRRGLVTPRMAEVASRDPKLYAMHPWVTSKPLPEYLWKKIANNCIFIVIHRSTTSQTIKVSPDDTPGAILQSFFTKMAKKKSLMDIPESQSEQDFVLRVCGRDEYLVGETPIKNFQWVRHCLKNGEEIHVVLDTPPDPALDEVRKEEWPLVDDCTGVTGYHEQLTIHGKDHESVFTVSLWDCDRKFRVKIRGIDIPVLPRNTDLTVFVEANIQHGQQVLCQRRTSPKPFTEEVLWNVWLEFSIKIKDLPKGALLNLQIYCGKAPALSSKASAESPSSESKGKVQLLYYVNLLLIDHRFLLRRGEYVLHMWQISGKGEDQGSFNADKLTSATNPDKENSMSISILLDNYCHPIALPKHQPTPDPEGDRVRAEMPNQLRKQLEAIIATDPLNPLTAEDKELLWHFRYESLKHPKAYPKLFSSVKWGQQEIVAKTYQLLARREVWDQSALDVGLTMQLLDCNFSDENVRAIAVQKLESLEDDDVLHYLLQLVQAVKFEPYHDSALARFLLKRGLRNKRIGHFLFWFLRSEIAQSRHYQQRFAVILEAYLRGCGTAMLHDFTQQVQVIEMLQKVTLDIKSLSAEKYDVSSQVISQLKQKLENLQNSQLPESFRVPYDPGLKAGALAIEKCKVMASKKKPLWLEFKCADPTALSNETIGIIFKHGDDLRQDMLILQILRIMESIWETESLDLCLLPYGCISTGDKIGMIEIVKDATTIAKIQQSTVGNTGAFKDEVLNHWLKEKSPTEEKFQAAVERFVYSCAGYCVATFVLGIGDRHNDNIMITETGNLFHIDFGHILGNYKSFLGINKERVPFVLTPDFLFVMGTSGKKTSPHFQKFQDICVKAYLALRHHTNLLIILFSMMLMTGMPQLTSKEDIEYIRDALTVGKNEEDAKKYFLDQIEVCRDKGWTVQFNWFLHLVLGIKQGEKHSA
T1 sequence (Q8WYR1 whole entry partner, species assumed): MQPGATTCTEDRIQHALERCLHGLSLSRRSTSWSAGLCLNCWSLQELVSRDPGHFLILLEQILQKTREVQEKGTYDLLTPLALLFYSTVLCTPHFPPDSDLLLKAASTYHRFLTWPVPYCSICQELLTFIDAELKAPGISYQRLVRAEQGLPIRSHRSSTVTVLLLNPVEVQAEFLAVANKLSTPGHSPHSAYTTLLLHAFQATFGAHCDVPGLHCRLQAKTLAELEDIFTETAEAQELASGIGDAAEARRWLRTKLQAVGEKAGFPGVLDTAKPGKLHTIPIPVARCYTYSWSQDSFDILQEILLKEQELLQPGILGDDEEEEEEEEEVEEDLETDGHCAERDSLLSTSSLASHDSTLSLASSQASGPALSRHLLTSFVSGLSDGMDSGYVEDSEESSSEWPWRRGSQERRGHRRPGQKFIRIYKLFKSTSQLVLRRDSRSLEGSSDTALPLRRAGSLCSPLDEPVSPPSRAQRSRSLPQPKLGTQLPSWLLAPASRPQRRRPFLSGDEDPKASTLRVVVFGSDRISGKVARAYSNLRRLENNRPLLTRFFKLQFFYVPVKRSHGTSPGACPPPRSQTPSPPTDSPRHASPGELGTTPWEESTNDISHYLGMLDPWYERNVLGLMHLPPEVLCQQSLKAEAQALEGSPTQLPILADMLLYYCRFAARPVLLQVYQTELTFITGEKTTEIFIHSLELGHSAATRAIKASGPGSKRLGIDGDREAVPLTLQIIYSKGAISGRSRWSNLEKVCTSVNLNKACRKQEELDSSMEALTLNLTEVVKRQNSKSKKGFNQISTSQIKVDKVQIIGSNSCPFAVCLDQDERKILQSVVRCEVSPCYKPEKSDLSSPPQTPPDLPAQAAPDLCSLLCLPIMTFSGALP

As for `COc1cc2sc(C(=O)Nc3nnn[nH]3)c(OCc3cccnc3)c2cc1OC` [Example C.11, 5,6-Dimethoxy-3-(pyridin-3-ylmethoxy)-benzo[b]thiophene-2-carboxylic acid (1H-tetrazol-5-yl)-amide], the IC50 amounted to 1480 nM.

Turning to `COc1cc2sc(C(=O)Nc3nnn[nH]3)c(OCc3cccc(Oc4ccccc4)c3)c2cc1OC` [Example C.12, 5,6-Dimethoxy-3-(3-phenoxy-benzyloxy)-benzo[b]thiophene-2-carboxylic acid (1H-tetrazol-5-yl)-amide], the IC50 was determined as 1160 nM.

In the case of `COc1cc2sc(C(=O)Nc3nnn[nH]3)c(OCC(c3ccccc3)c3ccccc3)c2cc1OC` [Example C.13, 3-(2,2-Diphenyl-ethoxy)-5,6-dimethoxy-benzo[b]thiophene-2-carboxylic acid (1H-tetrazol-5-yl)-amide], the IC50 is 970 nM. The result for `COc1cc2sc(C(=O)Nc3nnn[nH]3)c(OCc3ccccn3)c2cc1OC` [Example C.14, 5,6-Dimethoxy-3-(pyridin-2-ylmethoxy)-benzo[b]thiophene-2-carboxylic acid (1H-tetrazol-5-yl)-amide] reads 885 nM. The result for `COc1cc2sc(C(=O)Nc3nnn[nH]3)c(OCCc3cccc4ncccc34)c2cc1OC` [Example C.15, 5,6-Dimethoxy-3-(2-quinolin-5-yl-ethoxy)-benzo[b]thiophene-2-carboxylic acid (1H-tetrazol-5-yl)-amide] reads 757 nM; that for `COc1ccc(CCOc2c(C(=O)Nc3nnn[nH]3)sc3cc(OC)c(OC)cc23)cc1OC` [Example C.16, 3-[2-(3,4-Dimethoxy-phenyl)-ethoxy]-5,6-dimethoxy-benzo[b]thiophene-2-carboxylic acid (1H-tetrazol-5-yl)-amide], 740 nM; that for `COc1cc2sc(C(=O)Nc3nnn[nH]3)c(OCCc3cccc4ccccc34)c2cc1OC` [Example C.17, 5,6-Dimethoxy-3-(2-naphthalen-1-yl-ethoxy)-benzo[b]thiophene-2-carboxylic acid (1H-tetrazol-5-yl)-amide], 715 nM. The result for `COc1cc2sc(C(=O)Nc3nnn[nH]3)c(OCc3ccncc3)c2cc1OC` [Example C.18, 5,6-Dimethoxy-3-(pyridin-4-ylmethoxy)-benzo[b]thiophene-2-carboxylic acid (1H-tetrazol-5-yl)-amide] reads 450 nM; that for `COc1cc2sc(C(=O)Nc3nnn[nH]3)c(OCc3cccc(N(C)C)c3)c2cc1OC` [Example C.19, 3-(3-Dimethylamino-benzyloxy)-5,6-dimethoxy-benzo[b]thiophene-2-carboxylic acid (1H-tetrazol-5-yl)-amide], 450 nM; that for `COc1cc2sc(C(=O)Nc3nnn[nH]3)c(OCc3ccccc3OCC3CCCCC3)c2cc1OC` [Example C.20, 3-(2-Cyclohexylmethoxy-benzyloxy)-5,6-dimethoxy-benzo[b]thiophene-2-carboxylic acid (1H-tetrazol-5-yl)-amide], 410 nM. With `COc1cc2sc(C(=O)Nc3nnn[nH]3)c(OCCc3cccc4c3CCCC4)c2cc1OC` [Example C.21, 5,6-Dimethoxy-3-[2-(5,6,7,8-tetrahydro-naphthalen-1-yl)-ethoxy]-benzo[b]thiophene-2-carboxylic acid (1H-tetrazol-5-yl)-amide], the IC50 came to 300 nM. The result for `COc1cc2sc(C(=O)Nc3nnn[nH]3)c(OCc3cccc4ccccc34)c2cc1OC` [Example C.22, 5,6-Dimethoxy-3-(naphthalen-1-ylmethoxy)-benzo[b]thiophene-2-carboxylic acid (1H-tetrazol-5-yl)-amide] reads 290 nM; that for `COc1cc2sc(C(=O)Nc3nnn[nH]3)c(OC[C@@H](C)c3ccccc3)c2cc1OC` [Example C.23, 5,6-Dimethoxy-3-((S)-2-phenyl-propoxy)-benzo[b]thiophene-2-carboxylic acid (1H-tetrazol-5-yl)-amide], 255 nM; that for `COc1cc2sc(C(=O)Nc3nnn[nH]3)c(OCc3cccc4c3CCCC4)c2cc1OC` [Example C.24, 5,6-Dimethoxy-3-(5,6,7,8-tetrahydro-naphthalen-1-ylmethoxy)-benzo[b]thiophene-2-carboxylic acid (1H-tetrazol-5-yl)-amide], 255 nM. For `COc1cc2sc(C(=O)Nc3nnn[nH]3)c(OCc3cccc(OC4CCCC4)c3)c2cc1OC` [Example C.25, 3-(3-Cyclopentyloxy-benzyloxy)-5,6-dimethoxy-benzo[b]thiophene-2-carboxylic acid (1H-tetrazol-5-yl)-amide], the IC50 was determined as 230 nM. Regarding `COc1cc2sc(C(=O)Nc3nnn[nH]3)c(OCc3cccc(OCC4CCCCC4)c3)c2cc1OC` [Example C.26, 3-(3-Cyclohexylmethoxy-benzyloxy)-5,6-dimethoxy-benzo[b]thiophene-2-carboxylic acid (1H-tetrazol-5-yl)-amide], the IC50 turned out to be 215 nM.

Turning to `COc1cc2sc(C(=O)Nc3nnn[nH]3)c(OCCc3ccc(N(C)C)cc3)c2cc1OC` [Example C.27, 3-[2-(4-Dimethylamino-phenyl)-ethoxy]-5,6-dimethoxy-benzo[b]thiophene-2-carboxylic acid (1H-tetrazol-5-yl)-amide], the half-inhibitory concentration (IC50) came out at 185 nM. For `COc1cc2sc(C(=O)Nc3nnn[nH]3)c(OCc3ccc4c(c3)CCCC4)c2cc1OC` [Example C.28, 5,6-Dimethoxy-3-(5,6,7,8-tetrahydro-naphthalen-2-ylmethoxy)-benzo[b]thiophene-2-carboxylic acid (1H-tetrazol-5-yl)-amide], the IC50 was found to be 185 nM.

Consider `COc1cc2sc(C(=O)Nc3nnn[nH]3)c(O[C@@H](C)Cc3ccccc3)c2cc1OC` [Example C.29, 5,6-Dimethoxy-3-((S)-1-methyl-2-phenyl-ethoxy)-benzo[b]thiophene-2-carboxylic acid (1H-tetrazol-5-yl)-amide], for which the IC50 turned out to be 145 nM.

For `COc1cc2sc(C(=O)Nc3nnn[nH]3)c(OCc3ccc(C4CCCCC4)cc3)c2cc1OC` [Example C.30, 3-(4-Cyclohexyl-benzyloxy)-5,6-dimethoxy-benzo[b]thiophene-2-carboxylic acid (1H-tetrazol-5-yl)-amide], the IC50 was 134 nM.

For the compound `COc1cc2sc(C(=O)Nc3nnn[nH]3)c(OCc3cc(C(C)(C)C)cc(C(C)(C)C)c3)c2cc1OC` [Example C.31, 3-(3,5-Di-tert-butyl-benzyloxy)-5,6-dimethoxy-benzo[b]thiophene-2-carboxylic acid (1H-tetrazol-5-yl)-amide], the IC50 was determined as 123 nM. The result for `COc1cc2sc(C(=O)Nc3nnn[nH]3)c(OCCc3cc(C)cc(C)c3)c2cc1OC` [Example C.32, 3-[2-(3,5-Dimethyl-phenyl)-ethoxy]-5,6-dimethoxy-benzo[b]thiophene-2-carboxylic acid (1H-tetrazol-5-yl)-amide] reads 117 nM; that for `COc1cc2sc(C(=O)Nc3nnn[nH]3)c(OCCCc3ccccc3)c2cc1OC` [Example C.33, 5,6-Dimethoxy-3-(3-phenyl-propoxy)-benzo[b]thiophene-2-carboxylic acid (1H-tetrazol-5-yl)-amide], 115 nM; that for `COc1cc2sc(C(=O)Nc3nnn[nH]3)c(OCC(C)(C)c3ccccc3)c2cc1OC` [Example C.34, 5,6-Dimethoxy-3-(2-methyl-2-phenyl-propoxy)-benzo[b]thiophene-2-carboxylic acid (1H-tetrazol-5-yl)-amide], 84 nM.

As for `COc1cc2sc(C(=O)Nc3nnn[nH]3)c(OC[C@H](C)c3ccccc3)c2cc1OC` [Example C.35, 5,6-Dimethoxy-3-((R)-2-phenyl-propoxy)-benzo[b]thiophene-2-carboxylic acid (1H-tetrazol-5-yl)-amide], the IC50 came to 42 nM. Consider `COc1cc2sc(C(=O)Nc3nn[nH]n3)c(Oc3ccccc3)c2cc1C` [Example D.1, 6-Methoxy-5-methyl-3-phenoxy-benzo[b]thiophene-2-carboxylic acid (2H-tetrazol-5-yl)-amide], for which the 50% inhibitory concentration (IC50) worked out at 41 nM.

For the compound `COc1cc2sc(C(=O)Nc3nn[nH]n3)c(Oc3cccc(C=O)c3)c2cc1C` [Example D.2, 3-(3-Formyl-phenoxy)-6-methoxy-5-methyl-benzo[b]thiophene-2-carboxylic acid (2H-tetrazol-5-yl)-amide], the IC50 turned out to be 150 nM. On to `COc1cc2sc(C(=O)Nc3nn[nH]n3)c(Oc3cccc(C#N)c3)c2cc1C` [Example D.3, 3-(3-Cyano-phenoxy)-6-methoxy-5-methyl-benzo[b]thiophene-2-carboxylic acid (2H-tetrazol-5-yl)-amide], for which the IC50 turned out to be 275 nM. With `CCOc1ccc(Oc2c(C(=O)Nc3nn[nH]n3)sc3cc(OC)c(C)cc23)cc1` [Example D.5, 3-(4-Ethoxy-phenoxy)-6-methoxy-5-methyl-benzo[b]thiophene-2-carboxylic acid (2H-tetrazol-5-yl)-amide] the figure was 235 nM; with `COc1cc2sc(C(=O)Nc3nn[nH]n3)c(Oc3ccc(C(C)(C)C)cc3)c2cc1C` [Example D.6, 3-(4-tert-Butyl-phenoxy)-6-methoxy-5-methyl-benzo[b]thiophene-2-carboxylic acid (2H-tetrazol-5-yl)-amide], 890 nM; with `COc1cc2sc(C(=O)Nc3nn[nH]n3)c(Oc3cccc(C(C)(C)C)c3)c2cc1C` [Example D.7, 3-(3-tert-Butyl-phenoxy)-6-methoxy-5-methyl-benzo[b]thiophene-2-carboxylic acid (2H-tetrazol-5-yl)-amide], 230 nM. For `COc1cc2sc(C(=O)Nc3nnn[nH]3)c(Oc3ccc(CCCSc4ccc(Cl)cc4)cc3)c2cc1C` [Example D.8, 3-{4-[3-(4-Chlorophenenyl)sulfanylpropyl]phenoxy}-6-methoxy-5-methylbenzo[b]thiophene-2-caboxylic acid(1H-tetrazolyl)amide trifluroacetic acid salt], the IC50 was found to be 2610 nM.

The values above are taken from patent publication US20040259926A1, “3-Aryloxy and 3-heteroaryloxy substituted benzo[b]thiophenes as therapeutic agents” (priority 2003, published 2004).
